According to PubChem BioAssay (NCI):
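Interpolation was linear, between the two tested concentrations surrounding the appropriate level; five concentrations were tested over 48 hours in 96-well plates. Definition used: TGI = concentration required for complete inhibition of growth.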

Assays:
Assay in all cases: NCI tumour cell line growth inhibition, 48 h
U251 CNS = system: U251 CNS
HCT-15 colon = system: HCT-15 colon
MOLT-4 leukemia = system: MOLT-4 leukemia
PC-3 prostate = system: PC-3 prostate
UO-31 renal = system: UO-31 renal
OVCAR-4 ovarian = system: OVCAR-4 ovarian
OVCAR-3 ovarian = system: OVCAR-3 ovarian
M14 melanoma = system: M14 melanoma
SK-MEL-28 melanoma = system: SK-MEL-28 melanoma
A549 NSCLC = system: A549 NSCLC

Row | SMILES | TGI (U251 CNS) | TGI (HCT-15 colon) | TGI (MOLT-4 leukemia) | TGI (PC-3 prostate) | TGI (UO-31 renal) | TGI (OVCAR-4 ovarian) | TGI (OVCAR-3 ovarian) | TGI (M14 melanoma) | TGI (SK-MEL-28 melanoma) | TGI (A549 NSCLC)
1 | CC(C)(Cc1ccccc1)N1C(=O)N1C(C)(C)Cc1ccccc1 | > 100 µM | 68.2 µM | 55.6 µM | > 100 µM | > 100 µM | > 100 µM | > 100 µM | > 100 µM | > 100 µM | 77.7 µM
2 | COC(=O)[C@@H]1C=C[C@H](NC(C)=O)C1 | > 100 µM | > 100 µM | > 100 µM | > 100 µM | > 100 µM | > 100 µM | > 100 µM | > 100 µM | > 100 µM | 
3 | O=c1oc2cccnc2n1CCCCN1CCN(c2ccccc2)CC1 | > 100 µM | > 100 µM | > 100 µM | > 100 µM | > 100 µM | > 100 µM | > 100 µM | > 100 µM | > 100 µM | > 100 µM
4 | CC(=O)NC(=O)NC1=NCCC(=O)N1CCc1c[nH]c2ccccc12 | > 100 µM | > 100 µM | > 100 µM | > 100 µM | > 100 µM | > 100 µM | > 100 µM | > 100 µM | > 100 µM | > 100 µM
5 | C=CCc1ccccc1C1CC2(C(=O)OC)OC1C(C(=O)OC)=C2C(=O)OC (stereo not drawn) | > 10 µM | > 10 µM | > 10 µM | > 10 µM | > 10 µM | > 10 µM | > 10 µM | > 10 µM | > 10 µM | > 10 µM
6 | CC(=O)O[C@H]1CCC2[C@@H]3CCC4NC(=O)C(C#N)C[C@]4(C)C3CC[C@@]21C (stereo partly drawn) | > 10 µM | > 10 µM | > 10 µM | > 10 µM | > 10 µM | > 10 µM | > 10 µM | > 10 µM | > 10 µM | > 10 µM
7 | N#C/C(=C1/c2cc([N+](=O)[O-])ccc2-c2c1cc([N+](=O)[O-])cc2[N+](=O)[O-])N1CCCCC1 | > 100 µM | > 100 µM | > 100 µM | > 100 µM | > 100 µM | 69.7 µM | > 100 µM | > 100 µM | > 100 µM | > 100 µM
8 | O=c1[nH]c2cc([N+](=O)[O-])c(Nc3c4ccccc4nc4ccccc34)c([N+](=O)[O-])c2[nH]1 | 22.6 µM | 14.4 µM | 5.02 µM | 15.2 µM | 5.98 µM | 13.9 µM | 9.33 µM | 5.14 µM | 12.9 µM | 12.3 µM
9 | O=NN1CCCS1(=O)=O | > 100 µM | > 100 µM | > 100 µM | > 100 µM | > 100 µM | > 100 µM | > 100 µM | > 100 µM | > 100 µM | > 100 µM
10 | COc1ccc(OC)c(C[P+](c2ccccc2)(c2ccccc2)c2ccccc2)c1 |  | > 100 µM | > 35.3 µM | 8.56 µM | 79.4 µM | > 48.8 µM | > 37.3 µM | 18.3 µM | 18.8 µM | > 56.4 µM
